Square brackets hold non-standard residues; d marks the D form. Ends that are not written are not given here. Peptide text beside a SMILES is read from it. Dmt = Cc1cc(O)cc(C)c1C[C@H](N)C(=O)O; Inp = O=C(O)C1CCNCC1
Key:
SH-SY5Y cells = assay: Intracellular ROS production in 6-OHDA-treated SH-SY5Y cells; type: cell-based, human; details: 6-OHDA 100 µM; for decrease of ROS production stimulated by 6-OHDA: peptide at both 1 and 10 µM
Procedure: The detection of ROS generated in injured cells was evaluated using the 5(6)-carboxy-2ʹ,7ʹ-dichlorofluorescein diacetate (carboxy-H2DCFDA) reagent (Invitrogen, Bleiswijk, Netherlands). After incubation, cells were washed with ice-cold Phosphate-Buffer Saline (PBS). Then, the carboxyl-H2DCFDA (100 µL, 20 µM) reagent was added and incubated for 1 h at 37 °C. Finally, the fluorescence intensity was measured at wavelengths of […], and ROS levels were presented in percentage of control (non-treated cells).

[1] = tested on: Male Swiss albino CD1 mice; assay: Spontaneous locomotor activity after icv injection; type: in vivo, mouse; details: healthy mice, recording from 10 min after injection, 8-10 mice per group
Procedure: Male Swiss albino CD1 mice (JANVIER LABS, Le Genest-Saint-Isle, France), weighing 20–26 g, were used in the in vivo experiments. The animals were housed in Makrolon cages (L: 40 cm, W: 25 cm, H: 18 cm; 20 mice/cage), with free access to a standard semisynthetic laboratory diet (RM3, SDS, DIETEX-France, Saint-Gratien, France). All animals were kept in a ventilated room, at a temperature of 22 ± 1 °C, under a 12-h light/12-h dark cycle (lights on between 7:00 a.m. and 7:00 p.m.).
Intracerebroventricular (icv) injections (10 µL/mouse) of R-6 and its analogs were performed in the left brain ventricle of manually immobilized mice, with a Hamilton microsyringe ([…], Hamilton, Bonaduz, Switzerland) connected to a needle (length: 3.5 mm, diameter: 0.5 mm), as described elsewhere. Intracerebroventricular injections were performed by an experienced investigator, who frequently controlled the regularity and success of the injections using a methylene blue dye and observed (after sacrifice and frontal brain sectioning) that the injection was successful in more than 95% of trials. It was also verified in several animals, after sacrifice, that the mark of the needle puncture on the parietal bone was located at least 1.5 mm behind the bregma and at least 2.5 mm before the lambda, with laterality between 1 and 2 mm relative to the brain median line. This corresponds to stereotaxic coordinates of the left lateral ventricle in Lehmann’s atlas for mice (Lehmann, 1974): anteriority 2.95e4.15 mm, laterality 0.95e2 mm, and depth 3e4.5 mm. All drugs for icv administration were dissolved in 0.9% NaCl just before treatment. The icv injection method was approved by the Regional Ethical Committee for Animal Experimentation (Normandy; no. N/10-04-04-12).
Tested peptides were dissolved in DMSO and diluted with saline solution to the desired concentrations.
Locomotor activity was assessed automatically in a computerized actimeter (Omnitech Electronics, Inc., Columbus, Ohio, USA) which monitored horizontal displacements and vertical movements. Ten minutes after the icv injection, mice were placed individually in 20 × 20 × 30 cm compartments in a dimly illuminated and quiet room, and then motor activity was recorded. The responses were expressed as the number of crossed beams by the mouse during three consecutive 20 min periods.

[2] = tested on: LPS-stimulated RAW 264.7 cells; assay: Lipid peroxidation in LPS-stimulated RAW 264.7 cells (DPPP probe); type: cell-based, mouse; details: 24 h; for decrease of membrane lipids' oxidation: lowest concentration used (0.1 µM)
Procedure: The level of lipid peroxidation was evaluated after RAW 264.7 cells incubation with peptides for 24 h. Then, the cells were loaded with 50 µM diphenyl-1-pyrenylphosphine (DPPP) probe for 15 min, and fluorescence was read at 360 nm excitation and 460 nm emission wavelengths.

Caspase-3 = Caspase-3 activity in 6-OHDA-treated SH-SY5Y cells; type: cell-based, human; details: 6-OHDA 100 µM, 6 h
Procedure: Caspase-3 activity was assessed using “Caspase-3 fluorometric assay” (Sigma, St. Louis, MO, USA) with minor changes adapted by Silva et al.. The cells were treated with 6-OHDA (100 µM) for 6 h in the presence or absence of peptides. After this period, the culture medium was removed, and cells were rinsed with ice-cold PBS and collected by centrifugation at 3300×g for 5 min. The pellets were resuspended in lysis buffer, incubated for about 20 min on ice and finally centrifuged at 22,500×g, 4 °C, for 20 min. Cell lysates were processed following the manufacturer’s protocol, and fluorescence was read at wavelengths of 360 nm (excitation) and 460 nm (emission). Caspase-3 activity was calculated through the curve slope and presented as Δ fluorescence (a.u.)/mg of protein/min). Staurosporine (STAU, 1 µM) was used as positive control.

AKT = assay: Western blot, AKT phosphorylation in 6-OHDA-treated SH-SY5Y cells; type: cell-based, human; details: for effect of peptide on AKT phosphorylation after LY 294002 pre-treatment: LY 294002 20 µM 30 min before peptide 10 µM and 6-OHDA 100 µM, 7.5 min (5), 2.5 min (7); for AKT phosphorylation / stimulation time for maximum effect on AKT phosphorylation: peptide 10 µM; for AKT phosphorylation: 2.5-10 min, 6-OHDA 100 µM treated cells; for stimulation time for maximum effect on AKT phosphorylation: 6-OHDA-treated cells, p-AKT (Ser473)/total AKT
Procedure: The neuroblastoma SH-SY5Y cells were grown in a 6-well plate and when 80–90% confluent treated with 6-OHDA (100 µM) for 24 h. Then cells were stimulated with peptides for 2.5, 5, 7.5 and 10 min (for AKT) or 24 h (for mTOR). When needed, a 30 min pre-incubation step with LY 294002 was included before analogs and 6-OHDA addition. Stimulation was terminated by aspiration of the medium. Cells were washed 2 times with ice-cold PBS, and then 200 µL of ice-cold lysis buffer [150 mM NaCl, 20 mM Tris–HCl, glycerol, 5 mM EDTA, 0.5 mM phenylmethylsulphonylfluoride (PMSF), 10% Triton X-100, 100 mM protease inhibitors, pH 7.4] was added. Cells were incubated on ice for 15 min. Lysates were then centrifuged at 12,000×g for 10 min at 4 °C, and the supernatants were used as the total cell lysates. The protein content in the supernatants was quantified using the Bio-Rad protein assay kit. Equal amounts of protein were separated on 10% sodium dodecyl sulfate (SDS)-polyacrylamide gels and transferred to polyvinylidene difluoride membranes from (PVDF, Millipore, Cork, Ireland). Non-specific binding was blocked with tris-buffered saline Tween-20 (TBS-T: 150 mM NaCl, 20 mM Tris–HCl, 0.1% Tween 20, pH 7.5) containing 5% nonfat milk for 2 h at room temperature. Then, the membrane was incubated overnight at 4 °C with one of the following specific primary antibodies: Vinculin (1:1000 dilution; Cell Signalling Technology, Danvers, MA, USA), p-AKT (1:1000 dilution; Cell Signalling Technology, Danvers, MA, USA), AKT (1:1000 dilution; Cell Signalling Technology, Danvers, MA, USA), p-mTOR (1:1000 dilution; Cell Signalling Technology, Danvers, MA, USA), mTOR (1:1000 dilution; Cell Signalling Technology, Danvers, MA, USA). After incubation, membranes were washed six times per 5 min with TBS-T. In the next step, membranes were incubated with HRP-conjugated secondary antibodies (1:1000 dilution; Cell Signalling Technology, Danvers, MA, USA) for 1 h. Following six washes with TBS-T, the protein bands were detected with the Clarity Western ECL reagent from Bio-Rad. The band intensity was quantified by NIH ImageJ densitometric analysis. For quantification, specific phosphorylation was calculated as the ratio of phosphorylated AKT or mTOR signals to the total Akt or mTOR signal detected. Values of unstimulated samples were set to 1.0. The original immunoblots are provided in Supplementary data.

Molecule | decrease of intracellular ROS levels stimulated by 6-OHDA (SH-SY5Y cells; peptide 0.1 µM, 6 h) | effect on spontaneous (horizontal) locomotor activity [1] | effect on lipid peroxidation ([2]; 0.1-10 µM) | effect on Caspase-3 activity induced by 6-OHDA (Caspase-3; peptides 0.1-10 µM) | decrease of ROS production stimulated by 6-OHDA (SH-SY5Y cells; 6 h) | effect of peptide on AKT phosphorylation after LY 294002 pre-treatment (AKT) | AKT phosphorylation (AKT) | stimulation time for maximum effect on AKT phosphorylation (AKT) [min] | decrease of membrane lipids' oxidation [2] [%] | inhibition of peroxidation ([2]; 0.1 µM) | effect on ROS production (SH-SY5Y cells; peptide 10 µM) | effect on Caspase-3 activity induced by 6-OHDA (Caspase-3; peptide 10 µM)
YPLDLF [R-6, rubiscolin-6] | about 70% | do not affect locomotor activity | no effect | didn’t decrease | – | – | – | – | – | – | – | –
CC(C)C[C@H](NC(=O)C1CCN(C(=O)[C@@H](N)Cc2ccc(O)cc2)CC1)C(=O)N[C@@H](CC(=O)O)C(=O)N[C@@H](CC(C)C)C(=O)N[C@@H](Cc1ccccc1)C(N)=O [analog 7, Tyr-Inp-Leu-Asp-Leu-Phe-NH2] (H-Y[Inp]LDLF-NH2) | – | do not affect locomotor activity | – | most efficiently | about 60% | significantly blocked | transiently stimulated | 2.5 | ~10 | – | – | –
Cc1cc(O)cc(C)c1C[C@H](N)C(=O)N1CCC(C(=O)N[C@@H](CC(C)C)C(=O)N[C@@H](CC(=O)O)C(=O)N[C@@H](CC(C)C)C(=O)N[C@@H](Cc2ccccc2)C(=O)O)CC1 [analog 5, Dmt-Inp-Leu-Asp-Leu-Phe-OH] (H-[Dmt][Inp]LDLF-OH) | – | do not affect locomotor activity | – | active only at the highest dose | about 60% | significantly blocked | transiently stimulated | 7.5 | ~10 | most significant inhibition | – | –
Cc1cc(O)cc(C)c1C[C@H](N)C(=O)N1CCC[C@H]1C(=O)N[C@@H](CC(C)C)C(=O)N[C@@H](CC(=O)O)C(=O)N[C@@H](CC(C)C)C(=O)N[C@@H](Cc1ccccc1)C(=O)O [analog 1, Dmt-Pro-Leu-Asp-Leu-Phe-OH] (H-[Dmt]PLDLF-OH) | – | – | – | – | – | – | – | – | – | – | couldn’t decrease | showed the potency to suppress
CC(C)C[C@H](NC(=O)C1CCN(C(=O)[C@@H](N)Cc2ccc(O)cc2)CC1)C(=O)N[C@@H](CC(=O)O)C(=O)N[C@@H](CC(C)C)C(=O)N[C@@H](Cc1ccccc1)C(=O)O [analog 3, Tyr-Inp-Leu-Asp-Leu-Phe-OH] (H-Y[Inp]LDLF-OH) | – | do not affect locomotor activity | – | most efficiently | about 60% | – | transiently stimulated | 7.5 | ~10 | – | – | –
